Measured values: patent US20240344082A1, “VIRAL […] USE IN ENHANCING T-CELL PRIMING DURING VACCINATION” (GeoVax, Inc., priority 2021, published 2024)

How the values were obtained:
[1] = tested on: splenic PyCS-specific, IFN-γ-secreting CD8+ T cells; design: species or system mice; details: mouse, in vivo, sc
[2] = tested on: antigen-specific CD8+ T-cell expansion; details: in combination with adenovirus-based or irradiated sporozoite-based malaria vaccine; immune-competent mice; cited from earlier work

CRRTSTGQISTLRVNITAPLSQ [LD01, synthetic peptide used as positive control]
antigen-specific CD8+ T cell numbers relative to AdPyCS alone [1]: significantly increased | antigen-specific CD8+ T-cell expansion [2]: enhances
